Experimental data: PMC7693334, “Retrospective assessment of rat liver microsomal stability at NCATS: data and QSAR models” (Scientific Reports, 2020)

Experiment: High-throughput single time point substrate depletion microsomal stability assay
Type: in vitro ADME
Settings: Sprague-Dawley, control compounds, mean ± S.D across 600 plates, 0.5 mg/mL rat microsomal protein, 1.0 μM drug, NADPH regeneration system, pH 7.4, 37 °C, 15 min, t1/2 capped at 30 min
Description: Microsomal stability of the test articles was determined in a high-throughput format using the substrate depletion method. […] Sprague-Dawley was chosen because it is the most common strain used in drug discovery. Experiments were performed using a Freedom Evo 200 automated platform with a 96-channel (MCA96) head with EVOware software (version 3.2) (Tecan Inc., Männedorf, Switzerland). The system also includes an Inheco heating block and cooling block (Inheco, Munich, Germany). […] The assay incubation system consisted of 0.5 mg/mL of rat microsomal protein, 1.0 μM drug concentration, and NADPH regeneration system (containing 0.650 mM NADP + , 1.65 mM glucose 6-phosphate, 1.65 mM MgCl2, and 0.2 unit/mL G6PDH) in 100 mM phosphate buffer at pH 7.4. The incubation was carried out at 37 °C for 15 min. The reaction was quenched by adding 555 μL of acetonitrile containing 0.28 μM albendazole, an internal standard. After a 20-min centrifugation at 3000 rpm at 4 °C, 30 μL of the supernatant was transferred to an analysis plate and was diluted fivefold using 1:2 v/v acetonitrile/water. […] The raw data set was preprocessed to generate training and test data for the purpose of building and validating prediction models. […] Detailed steps involved in preprocessing the raw data set are provided in the supplementary information (Table S1).

half-life at 1 μM (rat liver microsomes) [min]	half-life at 1 μM (microsomes) [min]	Structure (SMILES)
3.8 ± 1.1		O=C1CC2(CCCC2)CC(=O)N1CCCCN1CCN(c2ncccn2)CC1 [Buspirone, buspirone]
> 30		NC(=O)N1c2ccccc2C=Cc2ccccc21 [Carbamazepine, carbamazepine]

Continued, compound first:

Structure (SMILES)	half-life at 1 μM (rat liver microsomes) [min]	half-life at 1 μM (microsomes) [min]
O=C(O)Cc1ccccc1Nc1c(Cl)cccc1Cl [Diclofenac, diclofenac]	11.4 ± 2.6	
CC(C)NCC(O)COc1cccc2ccccc12 (centres unmarked) [Propranolol, propranolol]	1.4 ± 0.3	
Cc1cc(=O)n(-c2ccccc2)n1C [Antipyrine, antipyrine]		> 30
